The results in this text go back to ChEMBL document CHEMBL5329194, “Design, Synthesis, and Evaluation of 18F-Labeling CYP1B1 PET Tracer Based on 2-Phenylquinazolin” (Bioorg Med Chem Lett, 2023).

Holding throughout (type): ADME
In data set [1] the target is T1, Cytochrome P450 1B1 (Homo sapiens, UniProt Q16678).
T1 sequence (Q16678 whole entry): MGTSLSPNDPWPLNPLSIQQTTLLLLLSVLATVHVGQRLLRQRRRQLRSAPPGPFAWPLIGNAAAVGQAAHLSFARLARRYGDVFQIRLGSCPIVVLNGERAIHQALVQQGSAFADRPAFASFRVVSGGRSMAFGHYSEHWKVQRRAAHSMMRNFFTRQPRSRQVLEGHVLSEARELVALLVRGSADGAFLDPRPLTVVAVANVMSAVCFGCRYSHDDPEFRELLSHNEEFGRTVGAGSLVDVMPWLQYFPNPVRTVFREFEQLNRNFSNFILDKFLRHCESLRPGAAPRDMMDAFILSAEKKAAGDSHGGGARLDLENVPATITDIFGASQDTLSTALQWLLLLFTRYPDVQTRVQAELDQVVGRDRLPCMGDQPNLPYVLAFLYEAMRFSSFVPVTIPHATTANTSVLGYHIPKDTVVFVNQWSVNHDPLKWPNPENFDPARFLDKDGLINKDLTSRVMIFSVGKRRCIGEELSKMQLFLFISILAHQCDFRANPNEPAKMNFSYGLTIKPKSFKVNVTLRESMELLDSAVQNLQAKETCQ
In words: Inhibition of CYP1B1 (unknown origin) by EROD assay.

Data set [2] has as its target T2, Cytochrome P450 1A1 (Homo sapiens, UniProt P04798).
T2 sequence (P04798 whole entry): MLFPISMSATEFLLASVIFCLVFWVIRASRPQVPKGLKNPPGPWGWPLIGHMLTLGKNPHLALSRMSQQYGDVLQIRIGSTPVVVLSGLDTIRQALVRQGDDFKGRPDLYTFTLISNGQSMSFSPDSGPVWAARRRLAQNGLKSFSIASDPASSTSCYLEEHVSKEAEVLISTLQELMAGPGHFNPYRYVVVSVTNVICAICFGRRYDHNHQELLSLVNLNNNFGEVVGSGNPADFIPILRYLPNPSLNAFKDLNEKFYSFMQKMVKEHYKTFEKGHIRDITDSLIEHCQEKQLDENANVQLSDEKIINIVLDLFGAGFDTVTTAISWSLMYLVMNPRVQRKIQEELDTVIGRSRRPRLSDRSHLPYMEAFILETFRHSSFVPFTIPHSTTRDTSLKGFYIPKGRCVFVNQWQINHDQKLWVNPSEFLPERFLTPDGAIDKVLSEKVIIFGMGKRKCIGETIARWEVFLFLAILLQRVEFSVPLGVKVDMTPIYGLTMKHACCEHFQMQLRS
In words: Inhibition of CYP1A1 (unknown origin).

Data set [3] deals with T3, Cytochrome P450 1A2 (Homo sapiens, UniProt P05177).
T3 sequence (P05177 whole entry): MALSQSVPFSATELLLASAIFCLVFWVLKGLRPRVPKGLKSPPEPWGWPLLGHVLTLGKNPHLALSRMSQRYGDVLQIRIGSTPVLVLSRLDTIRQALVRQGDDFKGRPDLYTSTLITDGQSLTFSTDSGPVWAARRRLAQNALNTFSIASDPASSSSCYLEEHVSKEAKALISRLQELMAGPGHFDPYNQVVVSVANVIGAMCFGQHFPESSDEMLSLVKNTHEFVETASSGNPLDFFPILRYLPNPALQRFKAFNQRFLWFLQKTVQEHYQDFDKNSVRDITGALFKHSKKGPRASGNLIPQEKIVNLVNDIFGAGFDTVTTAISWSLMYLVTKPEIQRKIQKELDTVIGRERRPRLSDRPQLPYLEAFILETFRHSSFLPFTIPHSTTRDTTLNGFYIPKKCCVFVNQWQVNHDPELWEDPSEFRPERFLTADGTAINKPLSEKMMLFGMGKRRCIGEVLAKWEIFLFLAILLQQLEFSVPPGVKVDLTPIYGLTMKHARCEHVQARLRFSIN
In words: Inhibition of CYP1A2 (unknown origin).

In data set [4] the test system is CYP1A1 versus CYP1B1. In words: Selectivity ratio of IC50 for inhibition of CYP1A1 (unknown origin) to IC50 for inhibition of CYP1B1 (unknown origin). To be noted: human; read-out: Ratio IC50.
Data set [5] relates to CYP1A2 versus CYP1B1. In words: Selectivity ratio of IC50 for inhibition of CYP1A2 (unknown origin) to IC50 for inhibition of CYP1B1 (unknown origin). To be noted: human; read-out: Ratio IC50.

Take `FCCOc1nc(-c2ccc(Br)cc2)nc2ccccc12`: the IC50 (usually the point on the concentration scale where inhibition reaches its midpoint) is 47.3 nM in data set [1], over 1000 nM in data set [2] and over 1000 nM in data set [3]. Also, the selectivity ratio in data set [4] and in data set [5] was over 21.1 throughout.
Regarding `O=c1[nH]c(-c2ccc(OCCF)cc2)nc2ccccc12`, the results for the IC50 in data set [1], in data set [2] and in data set [3] were 49.4 nM, over 1000 nM and over 1000 nM, respectively. The selectivity ratio in data set [4] and in data set [5] was over 20.2 throughout.
As to `O=c1cc(-c2ccccc2)oc2c1ccc1ccccc12` [ALPHA-NAPHTHOFLAVONE], half-maximal inhibition in data set [2] (IC50) was put at 64.2 nM.
